Results published in US8222260B2, “Substituted 6-anilinopurine derivatives as inhibitors of cytokinin oxidase/dehydrogenase and preparations containing these derivatives” (Univerzita Palackego V Olomouci, priority 2007, dated 2012).
Read-outs that look alike come from different tables or passages of the source.

Experiments:
NIH-3T3 (fibroblasts) = assay: Calcein AM cytotoxicity assay; type: cell-based, Mouse
Text: (§1) Absence of toxic effects against mammalian (especially human) cell lines in a wide concentration range is one of the requirements on compounds intended for use in agriculture and medicine. Because toxic compounds negatively influence metabolic processes in cells, many standard cytotoxicity assays are based on measurement of metabolisation rate of various artificial substrates. Resulting product is then quantified e.g. by means of spectrometry. The assays can be easily modified for use in 96-well plates. For evaluation of cytotoxic effect of compounds of this invention, a microtiter assay based on quantification of metabolisation of Calcein AM was used. The assay is widely used in drug screening programs and in chemosensitivity testing. In live cells, Calcein AM is enzymatically hydrolysed and accumulation of resulting calcein is manifested by green fluorescence.
(§2) Mouse cell lines B16-F10 (melanoma) and NIH-3T3 (fibroblasts) were used as well. The cells were maintained in Nunc/Corning 80 cm^2 plastic tissue culture flasks and cultured in cell culture medium (DMEM with 5 g/l glucose, 2 mM glutamine, 100 U/ml penicillin, 100 μg/ml streptomycin, 10% fetal calf serum and sodium bicarbonate).
(§3) The cell suspensions were prepared and diluted according to the particular cell type and the expected target cell density (2.500-30.000 cells per well based on cell growth characteristics) and pippetted (80 μl) into 96-well plates. Inoculates were allowed a pre-incubation period of 24 hours at 37° C. and 5% CO2 for stabilisation. Tested compound was added in total volume of 20 μl of water at time zero. Usually, test compound was evaluated at six 3-fold dilutions. […] All drug concentrations were tested in triplicates. Incubations of cells with the test compounds lasted for 72 hours at 37° C., in 5% CO2 atmosphere and 100% humidity. At the end of incubation period Calcein AM in PBS was added into final concentration of 1 μg/ml. After another 1 hour of incubation fluorescence (FD) was measured with the Labsystem FIA Reader Fluoroscan Ascent (UK). Growth inhibition (GI) was estimated using the following equitation: GI=(mean FDdrug exposed wells−mean FDblank)/(mean FDcontrol wells−mean FDblank)×100%.

[1] = test system: breast carcinoma cell line MCF-7; assay: Calcein AM cytotoxicity assay; type: cell-based, human
Text: as §1, §2, §3

AHK3 = target: T1, AHK3 (Arabidopsis thaliana, UniProt Q9C5U1); assay: Activation of cytokinin receptors (E. coli KMI001 beta-galactosidase reporter); type: cell-based; settings: 28 h incubation; n.a. means no activation
T1 sequence (Q9C5U1 1-1036): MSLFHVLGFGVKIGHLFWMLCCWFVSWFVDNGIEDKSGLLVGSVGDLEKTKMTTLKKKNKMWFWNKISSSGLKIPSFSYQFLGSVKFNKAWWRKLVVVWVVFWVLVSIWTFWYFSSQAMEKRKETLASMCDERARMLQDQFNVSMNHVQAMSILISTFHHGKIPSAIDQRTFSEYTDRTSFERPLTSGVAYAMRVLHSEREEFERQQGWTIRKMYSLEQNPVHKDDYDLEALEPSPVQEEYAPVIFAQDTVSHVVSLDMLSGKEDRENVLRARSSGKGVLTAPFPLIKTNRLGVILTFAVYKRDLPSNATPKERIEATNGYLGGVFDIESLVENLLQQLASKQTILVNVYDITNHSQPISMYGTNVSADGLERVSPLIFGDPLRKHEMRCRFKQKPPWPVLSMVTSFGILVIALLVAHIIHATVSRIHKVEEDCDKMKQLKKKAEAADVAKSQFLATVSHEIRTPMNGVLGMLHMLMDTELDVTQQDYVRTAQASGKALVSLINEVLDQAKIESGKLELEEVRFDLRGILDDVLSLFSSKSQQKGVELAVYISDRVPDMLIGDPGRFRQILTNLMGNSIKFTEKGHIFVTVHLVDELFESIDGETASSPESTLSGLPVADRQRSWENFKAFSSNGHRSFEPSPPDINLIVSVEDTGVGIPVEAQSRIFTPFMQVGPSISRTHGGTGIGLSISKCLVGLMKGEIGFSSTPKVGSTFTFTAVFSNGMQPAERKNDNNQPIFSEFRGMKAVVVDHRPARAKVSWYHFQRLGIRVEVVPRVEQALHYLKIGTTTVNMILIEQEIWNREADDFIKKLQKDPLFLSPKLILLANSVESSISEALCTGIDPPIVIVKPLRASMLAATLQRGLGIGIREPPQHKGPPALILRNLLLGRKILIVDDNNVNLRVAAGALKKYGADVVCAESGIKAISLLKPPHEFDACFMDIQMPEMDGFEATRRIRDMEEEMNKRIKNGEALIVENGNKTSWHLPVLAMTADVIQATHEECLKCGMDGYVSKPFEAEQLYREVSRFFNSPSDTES
Experimental: Escherichia coli strains KMI001 harbouring the plasmid […]4 or […]3 were grown overnight at 25° C. in M9 media enriched with 0.1% casamino acids to OD600 1. The preculture was diluted 1:600 in 1 ml M9 medium containing 0.1% casamino acids and 1 μl stock solution of either the tested compound (10^-7 M-5×10^-5 M) or solvent control (DMSO, ethanol, methanol) were added. The cultures were further grown at 25° C. in microtiter plate, 200 μl per well. […] The cultures were centrifuged and 50 μl aliquots of the supernatant were transferred to microtiter plate containing 2 μl 150 mM 4-methyl umbelliferyl galactoside which was subsequently incubated for 1 h at 37° C. The reaction was stopped by adding 100 μl 0.2 M Na2CO3. […] The EC50 value, the compound concentration activating the receptor to 50%, was calculated from the obtained dose response curves. The values shown in Table 10 are means of three replicates and the entire test was repeated at least twice.

[2] = test system: osteosarcoma cell line HOS; assay: Calcein AM cytotoxicity assay; type: cell-based, human; settings: 72 hours
Text: as §1
as §2, with “Following human cell lines were used for routine screening of the compounds: T-lymphoblastic leukemia cell line CEM, promyelocytic leukemia cell line HL-60, erytroid leukemia cell line K-562, breast carcinoma cell line MCF-7, osteosarcoma cell line HOS and melanoma cell line G-361. Mouse” for “Mouse”
The cell suspensions were prepared and diluted according to the particular cell type and the expected target cell density (2.500-30.000 cells per well based on cell growth characteristics) and pippetted (80 μl) into 96-well plates. Inoculates were allowed a pre-incubation period of 24 hours at 37° C. and 5% CO2 for stabilisation. Tested compound was added in total volume of 20 μl of water at time zero. Usually, test compound was evaluated at six 3-fold dilutions. In routine testing, the highest concentration tested was 166.6 μM. All drug concentrations were tested in triplicates. Incubations of cells with the test compounds lasted for 72 hours at 37° C., in 5% CO2 atmosphere and 100% humidity. At the end of incubation period Calcein AM in PBS was added into final concentration of 1 μg/ml. After another 1 hour of incubation fluorescence (FD) was measured with the Labsystem FIA Reader Fluoroscan Ascent (UK). Growth inhibition (GI) was estimated using the following equitation: GI=(mean FDdrug exposed wells−mean FDblank)/(mean FDcontrol wells−mean FDblank)×100%. The GI50 value, the drug concentration causing 50% reduction of Calcein AM conversion, was calculated from the obtained dose response curves.

[3] = test system: Amaranthus caudatus cotyledon/hypocotyl explants; assay: Amaranthus bioassay (betacyanin content); type: cell-based, Amaranthus caudatus var. atropurpurea; settings: for Activity (%) [10^−5 mol · l^−1 K = 100%]: at the concentration with highest activity, relative to 10^−5 M kinetin
Experimental: The standard Amaranthus bioassay was performed with the following modifications. The seeds of Amaranthus caudatus var. atropurpurea were surface-sterilised in 10% (w/v) N-chlorobenzenesulfonamide for 10 min and washed 5 times with deionized water. They were placed in 15 cm Petri dishes containing paper tissues saturated with deionized water. After 72 h of cultivation at 25° C. in darkness, the roots of the seedlings were cut off. The explants, consisting of two cotyledons and hypocotyls, were placed in 5 cm Petri dishes onto two layers of filtration paper soaked with 1 ml of the incubation medium containing 10 μmol of Na2HPO4—KH2PO4, pH 6.8, 5 μmol of tyrosine and the compound to be tested. There were 20 explants per dish. The procedure was carried out under green safe light in a darkroom. After 48 h of incubation at 25° C. in darkness, betacyanin was extracted by freezing the explants in 4 ml 3.33 μM acetic acid. The concentration of betacyanin was determined from the absorbances at 537 nm and 620 nm as follows: ΔA=A537nm−A620nm. The values ΔA were plotted against the concentration tested, are means of five replicates and the entire test was repeated at least twice. […] The compounds to be tested were dissolved in dimethylsulfoxide (DMSO) and the solution brought up to 10^−3M with distilled water.
From the obtained data, the concentration with the highest activity was selected for each compound tested. Relative activity of the compound at this concentration was calculated (Tab. 12). The activity obtained for 10^−5 M kinetin (K) was postulated as 100%.

recombinant AtCKX2 = target: T2, recombinant AtCKX2 (Arabidopsis thaliana, UniProt Q9FUJ3); assay: Inhibition of cytokinin oxidase/dehydrogenase activity (PMS/MTT microtitre plate assay); type: biochemical
T2 sequence (Q9FUJ3 23-501): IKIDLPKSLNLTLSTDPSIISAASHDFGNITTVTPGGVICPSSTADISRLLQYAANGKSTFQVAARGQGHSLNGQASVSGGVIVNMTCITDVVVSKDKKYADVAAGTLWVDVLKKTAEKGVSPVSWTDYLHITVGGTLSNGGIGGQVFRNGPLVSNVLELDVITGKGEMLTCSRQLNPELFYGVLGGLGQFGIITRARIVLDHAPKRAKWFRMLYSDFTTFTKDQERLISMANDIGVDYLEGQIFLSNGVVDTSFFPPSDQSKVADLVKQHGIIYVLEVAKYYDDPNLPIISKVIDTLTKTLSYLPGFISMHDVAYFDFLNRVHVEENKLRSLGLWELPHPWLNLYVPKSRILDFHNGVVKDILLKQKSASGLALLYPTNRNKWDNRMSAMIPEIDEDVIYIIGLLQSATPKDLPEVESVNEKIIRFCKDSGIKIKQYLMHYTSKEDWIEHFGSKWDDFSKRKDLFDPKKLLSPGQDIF
Experimental: IC50 determinations were done using the assay in microtitre plate. Each well contained 100 μL of PMS/MTT [phenazine methosulfate/3-(4,5-dimethylthiazol-2-yl)-2,5-diphenyltetrazolium bromide] reaction mixture (final concentrations: 0.1 M KH2PO4, pH 7.4, 1 mM MTT, 0.2 mM PMS) containing the tested compound (3×10^−7 M-3×10^−4 M) and 30 μM N^6-isopentenyladenine (iP) as a substrate. 100 μL of cell-free growth medium of S. cerevisiae strain 23344c ura^− harboring the plasmid pYES2-AtCKX2 was directly used as a source of AtCKX2. Plates were incubated in the dark for […] at 37° C. and the enzymatic reaction was stopped by 25 μL of 35% acetic acid. The absorbance at 578 nm was measured using spectrophotometer Tecan. Absorbance of the sample without iP was subtracted.
The IC50 value, the compound concentration that inhibits the enzyme activity to 50%, was calculated from the obtained dose response curves. The values shown in Table 9 are means of three replicates and the entire test was repeated at least twice.

[4] = test system: cytokinin-dependent tobacco callus Nicotiana tabacum L. cv. Wisconsin 38; assay: Tobacco callus biotest (plant cell division); type: cell-based
Experimental: The stimulatory effect of the newly prepared derivatives was tested in the calus biotest using cytokinin-dependent tobacco callus. Cytokinin-dependent tobacco callus Nicotiana tabacum L. cv. Wisconsin 38 was maintained at 25° C. in darkness on modified Murashige-Skoog medium, containing per 1 liter: 4 μmol of nicotinic acid, 2.4 μmol of pyridoxine hydrochloride, 1.2 μmol of thiamine, 26.6 μmol of glycine, 1.37 μmol of glutamine, 1.8 μmol of myo-inositol, 30 g of sucrose, 8 g of agar, 5.37 μmol of NAA and 0.5 μmol of 6-benzylaminopurine. Subcultivation was carried out every three weeks. Fourteen days before the bioassay, the callus tissue was transferred to the media without 6-benzylaminopurine. The biological activity was determined from the increase of the fresh callus weight after four weeks of cultivation. Five replicates were prepared for each concentration of the compound tested and the entire test was repeated twice. […] The compounds to be tested were dissolved in dimethylsulfoxide (DMSO) and the solution brought up to 10^−3 M with distilled water.
From the obtained data, the concentration with the highest activity was selected for each compound tested. Relative activity of the compound at this concentration was calculated (Table 11). The activity obtained for 10^−5 M of the control substance kinetin (K) was postulated as 100%.

Structure (SMILES) | Activity (%) [10^−5 mol · l^−1 K = 100%] [3] | GI50 (NIH-3T3 (fibroblasts); 72 hours) | GI50 ([1]; 72 hours, read-out: GI50 MCF7) | GI50 [2] | further results
Nc1nc(Nc2ccccc2)c2nc[nH]c2n1 [Compound 64] | 125.2% | – | – | – | GI50 (NIH-3T3 (fibroblasts); Mus musculus, NIH3T3, 72 hours): > 167 µM; GI50 ([1]; Homo sapiens, MCF7, 72 hours): > 167 µM; EC50 (AHK3): 25.3 µM; GI50 ([2]; Homo sapiens): > 167 µM
Nc1nc(Nc2cccc(F)c2)c2nc[nH]c2n1 [Compound 69] | 113.2% | – | – | – | IC50 (recombinant AtCKX2; 30 μM iP as substrate, pH 7.4, 37° C., means of three replicates, read-out: IC50, inhibition of recombinant AtCKX2): 29.4 µM; EC50 (AHK3): > 50 µM
Sc1nc(Nc2ccccc2)c2nc[nH]c2n1 [Compound 78, 2-Thio-6-anilinopurine] | – | > 167 µM | > 167 µM | > 167 µM | –
COc1ccccc1Nc1nc(S)nc2nc[nH]c12 [Compound 87] | – | > 167 µM | > 167 µM | > 167 µM | –
CSc1nc(Nc2ccccc2)c2[nH]cnc2n1 [Compound 94, 2-Methylthio-6-anilinopurine] | – | – | – | – | GI50 (NIH-3T3 (fibroblasts); Mus musculus, NIH3T3, 72 hours): > 167 µM; GI50 ([1]; Homo sapiens, MCF7, 72 hours): > 167 µM; GI50 ([2]; Homo sapiens): > 167 µM
CSc1nc(Nc2cccc(O)c2)c2nc[nH]c2n1 [Compound 101] | – | > 167 µM | > 167 µM | > 167 µM | –
COc1cccc(Nc2nc(SC)nc3[nH]cnc23)c1 [Compound 103] | 156.4% | > 167 µM | > 167 µM | > 167 µM | Activity (%) [10^−5 mol · l^−1 K = 100%] ([4]; at the concentration with highest activity, relative to 10^−5 M kinetin): 142.8%; concentration with highest activity ([4]; fresh weight after four weeks): 10^−5 mol · l^−1; concentration with highest activity ([3]; 48 h): 10^−5 mol · l^−1
Cc1nc(Nc2cccc(O)c2)c2nc[nH]c2n1 [Compound 116] | – | > 167 µM | > 167 µM | > 167 µM | –
O=C(Nc1ccccc1)Nc1cnns1 [thidiazuron, reference compound] | – | – | – | – | IC50 (recombinant AtCKX2): 30 µM
